Test results reported in patent publication US20090209633A1, “Treatment of Pain With Resiniferatoxin and Related Analogs” (priority 2006, published 2009).

Columns and labels:
DRG neurons = assay: Membrane depolarization and action potentials in DRG neurons (current clamp); assay type: cell-based, rat
Procedure: Primary DRG neuronal cultures were prepared from embryonic day 18 (E18) rat embryos. Adult pregnant rats were killed with an overdose of isoflurane. DRG were dissected and the cells were dissociated by triturating with a fire-polished glass pipette. Cells were cultured in Neurobasal medium (Life Technologies, Buffalo, N.Y., USA), supplemented with 10% fetal bovine serum (FBS), and grown on poly-D-lysine-coated glass coverslips. Cells were used from 5 to 15 days after plating. Small diameter (<30 μm) rounded neurons were selected for patch-clamp experiments. […] The Giga-seal patch-clamp technique was used to record whole-cell currents. For perforated-patch recordings, the bath solution contained (mM): sodium gluconate 140, KCl 2.5, Hepes 10, MgCl2 1 and ethylene glycol bis(2-aminoethyl ether)-N,N,N′N′-tetraacetic acid (EGTA) 1.5 (pH adjusted to 7.35 with NaOH), and the pipette solution contained (mM): sodium gluconate 130, NaCl 10, KCl 2.5, Hepes 10, MgCl2 1, EGTA 1.5 and 240 μg/ml^−1 amphotericin B (pH adjusted to 7.35 with NaOH). For current-clamp experiments the pipette solution contained (mM): potassium gluconate 130, NaCl 10, MgCl2 1, EGTA 0.2, K2ATP 1 and Hepes 10; pH adjusted to 7.35 with NaOH. Extracellular solution for current- and voltage-clamp experiments contained (mM): NaCl 140, KCl 4, MgCl2 1 and Hepes 10; pH adjusted to 7.35 with NaOH. Currents were recorded using a WPC 100 patch-clamp amplifier (E.S.F. Electronic, Goettingan, Germany). Data were filtered at 10 kHz, digitized (VR-10B, Instrutech Corp., Great Neck, N.Y., USA) and stored on videotapes or directly stored in the computer using a LabView interface. For analysis of whole-cell currents, data were filtered at 1 kHz (−3 db frequency with an 8-pole low-pass Bessel filter, Warner Instruments, LPF-8) and digitized at 2 kHz.
To attribute a physiological significance to the slow and irreversible action of RTX, we recorded membrane depolarization in current-clamp conditions. Action potentials in response to a current injection (10-100 pA) were recorded in order to confirm that the neurons were excitable (inset to FIGS. 9A and B). The average membrane potential was −57.1±1 mV (n=42).

rat TRPV1 = target: T1, rat TRPV1 (Rattus norvegicus, UniProt O35433); assay: Whole-cell currents in Xenopus laevis oocytes expressing TRPV1 (double-electrode voltage clamp); assay type: cell-based; settings: capsaicin 300 nM; for activation time (10-90% of the rising phase): holding −60 mV, protons pH 5.5, RTX 10 nM; for reversal potential of agonist-induced whole-cell current: ramp −80 to +80 mV in 1 s; for reversal/deactivation of current on agonist removal: −60 mV, pH 5.5, NADA 10 μM, washout >15 min for RTX
T1 construct: expressed in transfected cells; host or cells: Xenopus laevis oocytes injected with TRPV1 cRNA
T1 sequence (O35433 whole entry): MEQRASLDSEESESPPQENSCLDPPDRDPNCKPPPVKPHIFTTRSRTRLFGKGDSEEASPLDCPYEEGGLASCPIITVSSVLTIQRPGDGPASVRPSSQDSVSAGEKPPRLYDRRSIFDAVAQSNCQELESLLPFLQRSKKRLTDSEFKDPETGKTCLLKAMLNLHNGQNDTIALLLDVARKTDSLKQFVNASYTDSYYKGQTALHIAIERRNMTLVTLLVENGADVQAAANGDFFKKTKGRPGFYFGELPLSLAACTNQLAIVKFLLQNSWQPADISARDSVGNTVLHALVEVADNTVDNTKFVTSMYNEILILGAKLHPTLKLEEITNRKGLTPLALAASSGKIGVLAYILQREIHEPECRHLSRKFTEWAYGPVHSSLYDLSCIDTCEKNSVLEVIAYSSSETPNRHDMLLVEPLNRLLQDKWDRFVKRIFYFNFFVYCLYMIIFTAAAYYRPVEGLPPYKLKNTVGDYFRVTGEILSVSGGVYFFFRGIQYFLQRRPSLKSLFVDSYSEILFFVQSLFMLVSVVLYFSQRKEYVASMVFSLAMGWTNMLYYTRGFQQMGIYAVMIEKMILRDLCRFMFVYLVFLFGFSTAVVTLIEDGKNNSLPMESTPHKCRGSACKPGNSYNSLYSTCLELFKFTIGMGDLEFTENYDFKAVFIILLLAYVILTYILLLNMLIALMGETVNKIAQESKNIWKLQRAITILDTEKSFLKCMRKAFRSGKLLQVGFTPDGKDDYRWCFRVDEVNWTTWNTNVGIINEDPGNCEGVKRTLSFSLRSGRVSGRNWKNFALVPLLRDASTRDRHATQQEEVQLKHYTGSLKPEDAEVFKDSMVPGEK
Procedure: Rat TRPV1 dcRNA. Cloned rat TRPV1 was obtained from the Julius Lab at the University of California San Francisco. TRPV1 cRNA was obtained using standard techniques known to those of skill in the art.
Electrophysiology. Whole-cell and single-channel currents were recorded from rat DRG neurons in culture and from Xenopus laevis oocytes injected with rat TRPV1 cRNA. Animals were cared for according to the standards of the National Institutes of Health (NIH). All animal use protocols were approved by Southern Illinois University School of Medicine Animal Care Committee.
Oocytes were obtained by an abdominal incision after anaesthetizing the frog by immersion in a 0.05% solution of 3-aminobenzoic acid ethyl ester (MS222). Animals were killed by a subcutaneous injection of a 2% solution of MS222 according to NIH guidelines. One day after separating the oocytes from the follicular layer, 50-70 nl TRPV1 cRNA was injected using a Drummond Nanoject (Drummond Scientific Co., Broomall, Pa., USA). Oocytes were used for recording from 3 days after the injection. Double-electrode voltage clamp was performed using a Warner amplifier (Warner Instruments, Hamden, Conn., USA). Data were digitized and stored on videotape or directly stored on the computer using a LabView interface (National Instruments, Austin, Tex., USA). Experiments were performed at 21-23° C. Oocytes were placed in a Perspex chamber superfused (5-10 ml min^−1) with Ca^2+-free Ringer solution containing (mM): NaCl 100, KCl 2.5 and Hepes 5; pH adjusted to 7.35 with NaOH. Current-voltage relationships were measured using 1-s voltage ramps from −80 to +80 mV.
This example tests the activation of whole-cell currents in oocytes by RTX. Whole-cell currents were recorded from oocytes heterologously expressing TRPV1. […] Agonist-induced currents are shown after subtracting the leak current in the absence of the agonist. […] In order to quantify this, we calculated the ratio of outward and inward currents. […] PKC activation increases sensitivity as well as TRPV1 translocation. […] (Szallasi et al. 1990b; Caterina et al. 1997; Marshall et al. 2003.)

Structure (SMILES) | membrane depolarization (DRG neurons; capsaicin 30 nM) [mV] | number of action potentials (DRG neurons; capsaicin 30 nM) | activation time (10-90% of the rising phase) (rat TRPV1) [s] | reversal potential of agonist-induced whole-cell current (rat TRPV1; RTX 10 nM) [mV] | reversal/deactivation of current on agonist removal (rat TRPV1; RTX 10 nM) | membrane depolarization (DRG neurons; RTX 3 pM) [mV] | number of action potentials (DRG neurons; RTX 3 pM) | number of action potentials (DRG neurons; RTX 10 pM) | membrane depolarization (DRG neurons; RTX 10 nM) [mV] | number of action potentials (DRG neurons; RTX 10 nM) | membrane depolarization (DRG neurons; RTX 1 μM) [mV] | number of action potentials (DRG neurons; RTX 1 μM) | membrane depolarization (DRG neurons; RTX 10 μM (so in the source)) [mV] | membrane depolarization (DRG neurons; RTX 100 μM (so in the source)) [mV] | number of action potentials (DRG neurons; RTX ˜100 pM) | ratio of outward and inward currents (rectification) (rat TRPV1; ramp −80 to +80 mV, RTX 10 nM)
COc1cc(CNC(=O)CCCC/C=C/C(C)C)ccc1O [capsaicin] | 13.3±3.5 | 54.2±10.5 | 23.9±1.5 | −12.3±0.42 | could be reversed readily |  |  |  |  |  |  |  |  |  |  | 
C=C(C)[C@]12C[C@@H](C)[C@@]34O[C@](Cc5ccccc5)(O[C@@H]1[C@@H]3C=C(COC(=O)Cc1ccc(O)c(OC)c1)C[C@]1(O)C(=O)C(C)=C[C@@H]41)O2 [RTX, resiniferatoxin] |  |  | 61.4±4.4 | −10.4±0.53 | did not deactivate even after a prolonged washout | 10.6±1.6 | 16.6±8.3 | 24.6±6.9 | 32.2±5.1 | 24.5±8.6 | 52±2 | 14.6±4.6 | 14.1±1.5 | 16.3±3 | 77.8±11.8 | 2.35±0.97
